Results as given in the NIST ThermoML archive (doi:10.1021/je200856f).
Numbers after ± are expanded uncertainties.

Assay: mn = molality of the nth substance listed, in mol/kg
Details: 101 kPa, Liquid; for mass density: Vibrating tube method; for electrical conductivity: Wheatstone bridge equipment

C[N+](C)(C)CCO.[Cl-] [choline chloride] + O
Details | electrical conductivity [S/m] | mass density [kg/m3] | viscosity [mPa·s]
278.15 K, m1 = 0.0293 | – | – | 1.527 ± 0.048
278.15 K, m1 = 0.054 | – | 1000.97 ± 0.23 | –
278.15 K, m1 = 0.058 | – | – | 1.551 ± 0.049
278.15 K, m1 = 0.1087 | – | 1001.95 ± 0.24 | –
278.15 K, m1 = 0.1113 | – | – | 1.515 ± 0.048
278.15 K, m1 = 0.2495 | – | – | 1.577 ± 0.05
278.15 K, m1 = 0.2554 | – | 1004.5 ± 0.25 | –
278.15 K, m1 = 0.3505 | – | – | 1.601 ± 0.051
278.15 K, m1 = 0.4956 | – | – | 1.631 ± 0.052
278.15 K, m1 = 0.5004 | – | 1008.71 ± 0.27 | –
278.15 K, m1 = 0.6473 | – | – | 1.695 ± 0.054
278.15 K, m1 = 0.6512 | – | 1011.01 ± 0.28 | –
278.15 K, m1 = 0.7484 | – | 1012.68 ± 0.28 | –
278.15 K, m1 = 0.7512 | – | – | 1.741 ± 0.055
278.15 K, m1 = 0.903 | – | – | 1.762 ± 0.056
278.15 K, m1 = 1.005 | – | – | 1.791 ± 0.057
278.15 K, m1 = 1.203 | – | 1019.28 ± 0.32 | 1.862 ± 0.059
278.15 K, m1 = 1.504 | – | 1022.75 ± 0.33 | –
278.15 K, m1 = 1.506 | – | – | 1.936 ± 0.061
278.15 K, m1 = 1.99 | – | – | 2.077 ± 0.066
278.15 K, m1 = 1.992 | – | 1028.85 ± 0.37 | –
288.15 K, m1 = 0.0293 | – | – | 1.151 ± 0.036
288.15 K, m1 = 0.054 | – | 1000.03 ± 0.23 | –
288.15 K, m1 = 0.058 | – | – | 1.17 ± 0.037
288.15 K, m1 = 0.1087 | – | 1000.95 ± 0.23 | –
288.15 K, m1 = 0.1113 | – | – | 1.164 ± 0.037
288.15 K, m1 = 0.2495 | – | – | 1.192 ± 0.038
288.15 K, m1 = 0.2554 | – | 1003.33 ± 0.25 | –
288.15 K, m1 = 0.3505 | – | – | 1.211 ± 0.038
288.15 K, m1 = 0.4956 | – | – | 1.237 ± 0.039
288.15 K, m1 = 0.5004 | – | 1007.27 ± 0.26 | –
288.15 K, m1 = 0.6473 | – | – | 1.287 ± 0.041
288.15 K, m1 = 0.6512 | – | 1009.43 ± 0.27 | –
288.15 K, m1 = 0.7484 | – | 1011 ± 0.28 | –
288.15 K, m1 = 0.7512 | – | – | 1.323 ± 0.042
288.15 K, m1 = 0.903 | – | – | 1.342 ± 0.043
288.15 K, m1 = 1.005 | – | – | 1.364 ± 0.043
288.15 K, m1 = 1.203 | – | 1017.23 ± 0.31 | 1.417 ± 0.045
288.15 K, m1 = 1.504 | – | 1020.5 ± 0.33 | –
288.15 K, m1 = 1.506 | – | – | 1.476 ± 0.047
288.15 K, m1 = 1.99 | – | – | 1.587 ± 0.05
288.15 K, m1 = 1.992 | – | 1026.31 ± 0.36 | –
298.15 K, m1 = 0.0272 | 0.279 ± 0.003 | – | –
298.15 K, m1 = 0.0293 | – | – | 0.875 ± 0.028
298.15 K, m1 = 0.05 | 0.492 ± 0.005 | – | –
298.15 K, m1 = 0.054 | – | 997.931 ± 0.23 | –
298.15 K, m1 = 0.058 | – | – | 0.888 ± 0.028
298.15 K, m1 = 0.1 | 0.919 ± 0.01 | – | –
298.15 K, m1 = 0.1087 | – | 998.81 ± 0.23 | –
298.15 K, m1 = 0.1113 | – | – | 0.903 ± 0.029
298.15 K, m1 = 0.2495 | – | – | 0.908 ± 0.029
298.15 K, m1 = 0.25 | 2.03 ± 0.02 | – | –
298.15 K, m1 = 0.2554 | – | 1001.09 ± 0.24 | –
298.15 K, m1 = 0.35 | 2.67 ± 0.03 | – | –
298.15 K, m1 = 0.3505 | – | – | 0.928 ± 0.029
298.15 K, m1 = 0.4956 | – | – | 0.95 ± 0.03
298.15 K, m1 = 0.5 | 3.55 ± 0.04 | – | –
298.15 K, m1 = 0.5004 | – | 1004.84 ± 0.26 | –
298.15 K, m1 = 0.6473 | – | – | 0.984 ± 0.031
298.15 K, m1 = 0.65 | 4.37 ± 0.05 | – | –
298.15 K, m1 = 0.6512 | – | 1006.92 ± 0.27 | –
298.15 K, m1 = 0.7484 | – | 1008.42 ± 0.28 | –
298.15 K, m1 = 0.75 | 4.79 ± 0.05 | – | –
298.15 K, m1 = 0.7512 | – | – | 1.009 ± 0.032
298.15 K, m1 = 0.9 | 5.44 ± 0.06 | – | –
298.15 K, m1 = 0.903 | – | – | 1.023 ± 0.033
298.15 K, m1 = 1.005 | – | – | 1.043 ± 0.033
298.15 K, m1 = 1.203 | – | 1014.4 ± 0.31 | 1.082 ± 0.034
298.15 K, m1 = 1.205 | 6.54 ± 0.07 | – | –
298.15 K, m1 = 1.504 | – | 1017.56 ± 0.33 | –
298.15 K, m1 = 1.505 | 7.43 ± 0.08 | – | –
298.15 K, m1 = 1.506 | – | – | 1.127 ± 0.036
298.15 K, m1 = 1.99 | – | – | 1.234 ± 0.039
298.15 K, m1 = 1.992 | – | 1023.16 ± 0.36 | –
298.15 K, m1 = 1.994 | 8.53 ± 0.09 | – | –
308.15 K, m1 = 0.0293 | – | – | 0.715 ± 0.023
308.15 K, m1 = 0.054 | – | 994.893 ± 0.23 | –
308.15 K, m1 = 0.058 | – | – | 0.724 ± 0.023
308.15 K, m1 = 0.1087 | – | 995.745 ± 0.23 | –
308.15 K, m1 = 0.1113 | – | – | 0.732 ± 0.023
308.15 K, m1 = 0.2495 | – | – | 0.746 ± 0.024
308.15 K, m1 = 0.2554 | – | 997.961 ± 0.24 | –
308.15 K, m1 = 0.3505 | – | – | 0.757 ± 0.024
308.15 K, m1 = 0.4956 | – | – | 0.774 ± 0.025
308.15 K, m1 = 0.5004 | – | 1001.61 ± 0.26 | –
308.15 K, m1 = 0.6473 | – | – | 0.811 ± 0.026
308.15 K, m1 = 0.6512 | – | 1003.63 ± 0.27 | –
308.15 K, m1 = 0.7484 | – | 1005.09 ± 0.28 | –
308.15 K, m1 = 0.7512 | – | – | 0.826 ± 0.026
308.15 K, m1 = 0.903 | – | – | 0.835 ± 0.027
308.15 K, m1 = 1.005 | – | – | 0.854 ± 0.027
308.15 K, m1 = 1.203 | – | 1010.92 ± 0.31 | 0.884 ± 0.028
308.15 K, m1 = 1.504 | – | 1014 ± 0.32 | –
308.15 K, m1 = 1.506 | – | – | 0.921 ± 0.029
308.15 K, m1 = 1.99 | – | – | 1.007 ± 0.032
308.15 K, m1 = 1.992 | – | 1019.47 ± 0.35 | –
318.15 K, m1 = 0.0293 | – | – | 0.633 ± 0.02
318.15 K, m1 = 0.054 | – | 991.063 ± 0.23 | –
318.15 K, m1 = 0.058 | – | – | 0.61 ± 0.019
318.15 K, m1 = 0.1087 | – | 991.902 ± 0.23 | –
318.15 K, m1 = 0.1113 | – | – | 0.623 ± 0.02
318.15 K, m1 = 0.2495 | – | – | 0.638 ± 0.02
318.15 K, m1 = 0.2554 | – | 994.085 ± 0.24 | –
318.15 K, m1 = 0.3505 | – | – | 0.646 ± 0.021
318.15 K, m1 = 0.4956 | – | – | 0.656 ± 0.021
318.15 K, m1 = 0.5004 | – | 997.683 ± 0.26 | –
318.15 K, m1 = 0.6473 | – | – | 0.694 ± 0.022
318.15 K, m1 = 0.6512 | – | 999.672 ± 0.27 | –
318.15 K, m1 = 0.7484 | – | 1001.11 ± 0.27 | –
318.15 K, m1 = 0.7512 | – | – | 0.69 ± 0.022
318.15 K, m1 = 0.903 | – | – | 0.702 ± 0.022
318.15 K, m1 = 1.005 | – | – | 0.721 ± 0.023
318.15 K, m1 = 1.203 | – | 1006.86 ± 0.3 | 0.747 ± 0.024
318.15 K, m1 = 1.504 | – | 1009.9 ± 0.32 | –
318.15 K, m1 = 1.506 | – | – | 0.776 ± 0.025
318.15 K, m1 = 1.99 | – | – | 0.843 ± 0.027
318.15 K, m1 = 1.992 | – | 1015.31 ± 0.35 | –

O [water] + C[N+](C)(C)CCO.[Cl-]
Details | mass density [kg/m3]
278.15 K, m2 = 0 | 999.961 ± 0.23
